Patent US6387955B1, “Enhanced anti-angiogenic activity of permanently charged derivatives of steroid hormones” (Pharmos Corporation, priority 1997, dated 2002)

Experiments:
MCF-7 tumors [1] = experiment: Capillary density in MCF-7 tumor sections by microscopic morphometry; type: in vivo, nude mice; conditions: viable regions only
Procedure: Tumors from TMI-treated animals and from placebo-treated animals were removed after cervical dislocation. Tumors were treated with a biological dye (Davidson Marking Systems, Bradley Products, Bloomington, Minn.) so that histological sections could be oriented in the same direction as MRI slice images. The histological plane corresponding to the central slice of the MRI study was established by a single cut through the tumor. This plane was based on the position of the tumor in the spectrometer, sagittal, transverse and coronal images and anatomical landmarks. The bisected tumors were fixed in 10% formalin, dehydrated in 70% ethanol, blocked in paraffin. 4 μm histological sections were cut, placed on slides and stained with either hematoxylin-eosin or a modified trichrome method. Hematoxylin-eosin was used to assess viability, necrosis and pigmentation. The modified trichrome method was applied to the identification of fibrotic regions (i.e., the dye stains for mucopolysaccharides).
Vascular density was determined using two techniques: by morphometric analysis of histological sections and by image analysis of GSL-1 lectin stained sections. […] In each field, the number of grid squares containing capillaries, as defined by either the presence of red blood cells or a distinct endothelial cell, were recorded. […]

Bovine endothelial cells = experiment: Endothelial cell tube formation on Matrigel; type: cell-based; conditions: 10 μM, image analysis
Procedure: Bovine endothelial cells were harvested by brief exposure to 1 mM EDTA, washed with DMEM containing 0.1% bovine serum albumin and added to a layer of Matrigel (basement membrane components) in a 24 well plate to a density of 50,000 cells per well. After attachment, culture media (1.0 ml) was added and the plates incubated as a monolayer culture in the presence or absence of various concentrations of TMI. The plates were analyzed hourly using Hoffman optics for endothelial tube formation and growth. Photomicrographs were taken for estimation of relative inhibitory action.
The action of TMI on angiogenesis was evaluated using in vitro techniques. Bovine endothelial cells seeded on matrigel (a basement membrane preparation made up of laminin, collagen type IV, heparin sulfate proteoglycan and entactin) will form tubes which elongate as a function of time. […] A dose of 10 μM of TMI decreased tube area by more than 70%, as measured by image analysis.

MCF-7 tumors [2] = experiment: Tumor necrosis in MCF-7 tumors by T2-weighted MRI; type: in vivo, nude mice
Procedure: Female CD1-nu/nu athymic mice (6 weeks old) were obtained from the Weizmann Institute Department of Animal Services. MCF-7 cells, serially passed as described above, were detached from the culturing flasks with 0.03% EDTA in phosphate buffered saline (PBS) and washed several times in normal saline. Cells (10^7/innoculum) were then injected into the ventral fat pad at the level of the breast. Coincident with cell introduction, a slow-release pellet of estradiol (0.72 mg/pellet, 45-day release profile; Innovative Research, Sarasota, Fla.) was implanted subcutaneously in the flank of the animal. Mice were anesthetized with ketamine/Rompun (i.p.) for the surgical procedures. […] At this point, animals were randomized into four study groups. In the first, the estrogen pellet was removed and replaced with a slow-release TMI-laden pellet (6.3 mg, 45-day release) (n=5). In the second group, the estrogen pellet was removed and replaced with a tamoxifen pellet (n=7). The third group was treated with a blank (placebo) pellet (n=5), while the fourth group was reimplanted with an estradiol pellet (n=4). TMI and placebo-treated animals were imaged (under ketamine/Rompun anesthesia) either immediately before pellet exchange (day 0) or at day 3, 6, 12 and 25 after pellet exchange.
MRI images were recorded with a Bruker 4.7 (tesla)/30 Biospec spectrometer (Bruker Medizintechnik, Rheinstetten, Germany). 1H Spin-echo images were recorded at 200.12 MHz using a custom-made 4.5 cm rf coil with an image data matrix of 256×128 pixels. Pilot scans of the tumors were completed using a fast transverse multi-slice spin-echo sequence (giving T1-weighted spectra; inter-echo time (TE)=16 msec, recovery time (TR)=500 msec) followed by T2-weighted sequences in which axial slices perpendicular to the spine (i.e., a coronal orientation) were recorded. In the latter case, spin-echo images were obtained using a 4 cm field of view, 1 mm slice thickness, 1.2 mm slice-to-slice distance and a four-sequence average. The TE and TR were optimized to provide the best image contrast generating values of 80 and 3200 msec, respectively. This gave a total imaging time of approximately 30 min. Under the conditions reported, the in-plane resolution was 155×310 μm. Tumor size was calculated using a slice-to-slice reconstruction in which the slice surface area was obtained from histograms provided by the resident Bruker software package using the following relationship:
where XSA is the cross-sectional area of an internal slice, ES is the cross-sectional area of an edge slice, l is the slice thickness and ssd is the distance from the middle of one slice to the middle of the next. For image analysis, the average pixel intensity of viable portions of MCF-7 tumors was determined from a central tumor slice using histograms generated by the dedicated Bruker software package. […] Fibrosis was defined as those areas manifesting a decrease in pixel intensity of […].
In vivo tumor histology was assessed for TMI and placebo-treated tumors using T2-weighted MR images. […] At this time, the area of necrosis was two-fold higher than that observed on day 0 (increasing from an average of 20% to approximately 40%).

In the case of `CC/C(=C(\c1ccccc1)c1ccc(OCC[N+](C)(C)C)cc1)c1ccccc1` [TMI, Tamoxifen methiodide], the “reduction in capillary area compared with the placebo” value (MCF-7 tumors [1]) is reported as 50%, the “decrease of tube area” value (Bovine endothelial cells) is reported as “more than 70%” and the “total area of necrosis, day three average” value (MCF-7 tumors [2]; day 3 after pellet exchange) is reported as 72%. The “maximum extent of necrosis” value (MCF-7 tumors [2]; preliminary comparison of TMI and tamoxifen) was 72% and the “onset of tumor necrosis” value (MCF-7 tumors [2]; sampling day after pellet exchange) was 3 days.
